Measured values taken from patent EP0515927A2, “Pradimicin antibiotics” (priority 1991, dated 1992).
Values after ≈ are worked out from the molar mass of the structure shown. Read-outs that look alike come from different tables or passages of the source.

Key:
[1] = system: herpes simplex virus type I (HSV-1); details: 72 h
[2] = system: Madin Darby canine kidney (MDCK) cell; details: Influenza virus-MDCK cell, (TD50: 50% cytotoxicity without virus)
C. albicans A9540 = assay: In vivo efficacy against C. albicans A9540 systemic infection in mice; set-up: species or system male ICR mice; details: single i.v. injection immediately after i.v. challenge; survivors on 20th day
Procedure: The in vivo efficacy of pradimicins was evaluated against C. albicans A9540 systemic infection in male ICR mice (20-24 g body weight). The pathogen was cultured for 18 hours at 28°C in YGP medium (yeast extract 0.2%, glucose 1.5%, peptone 0.5%, K2HP04 0.05% and MgS04 0.05%) and resuspended in saline. Mice were challenged intravenously with 10 times lethal dose of the pathogen. Immediately after the fungal challenge, groups of 5 mice received a single intravenous injection of pradimicin S or FS or N-methyl pradimicin S at various dose levels. Amphotericin B and Fluconazol were used as positive controls. The median protective dose (PDso) was determined from the number of surviving mice recorded on the 20th day after the fungal infection.

influenza virus A = assay: In vitro antiviral activity, influenza virus A-MDCK cell system, dye-uptake assay (inhibition of viral cytopathic effect); format: cell-based; details: 50% inhibition of cytopathic effect, 72 hours
various fungal organisms = assay: In vitro antifungal activity, agar dilution method, Yeast Morphology agar with 1/15 M phosphate buffer (pH 7.0); format: cell-based; details: summary in words (Table 7 is an image)
Procedure: The in vitro antifungal activity of pradimicins was determined by a conventional agar dilution method using Yeast Morphology agar containing 1/15 M phosphate buffer (pH 7.0).

Vero cells = details: HSV-Vero cell, (TD50: 50% cytotoxicity without virus)
[3] = Acute toxicity in mice after single i.v. administration; format: in vivo
Procedure: The acute toxicity of pradimicins S and FS and N-methyl pradimicin S was determined in mice after single administration (i.v.).

[4] = mouse, in vivo, iv, read-out: LD50

Compound | ID50 [1] [µg/mL] | ID50 [2] [µg/mL] | PD50 mg/kg (i.v.) (C. albicans A9540) [mg/kg] | ID50 (influenza virus A) [µg/mL] | in vitro antifungal activity (various fungal organisms) | ID50 (Vero cells) [µg/mL] | LD50 [3, 4] [mg/kg] | LD50 [3] [mg/kg]
CN[C@@H]1[C@H](O[C@@H]2O[C@H](CO)[C@@H](O)[C@H](OS(=O)(=O)O)[C@H]2O)[C@@H](O)[C@H](O[C@H]2c3cc(C)c(C(=O)N[C@H](C)C(=O)O)c(O)c3-c3c(cc4c(c3O)C(=O)c3cc(OC)cc(O)c3C4=O)[C@@H]2O)O[C@@H]1C [Pradimicin S, pradimicin S] | >100 | >100 | 35 | 22 (≈ 23.1 µM) | activity against various fungal organisms | >100 | 244 | 
C[C@@H]1[C@H](O)[C@@H](C)/C=C/C=C/C=C/C=C/C=C/C=C/C=C/[C@H](O[C@@H]2O[C@H](C)[C@@H](O)[C@H](N)[C@@H]2O)C[C@@H]2O[C@](O)(C[C@@H](O)C[C@@H](O)[C@H](O)CC[C@@H](O)C[C@@H](O)CC(=O)O[C@H]1C)C[C@H](O)[C@H]2C(=O)O [Amphotericin B, reference compound] |  |  | 0.31 |  |  |  |  | 
N-methyl pradimicin S [BMY-29273] |  |  | 47 |  | activity against various fungal organisms |  |  | ≥ 424
Nc1nc2c(ncn2COCCO)c(=O)[nH]1 [Acyclovir, reference compound] | 0.09 (≈ 0.4 µM) |  |  |  |  | >100 |  | 
OC(Cn1cncn1)(Cn1cncn1)c1ccc(F)cc1F [Fluconazol, reference compound] |  |  | >50 |  |  |  |  | 
CN[C@@H]1[C@H](O[C@@H]2O[C@H](CO)[C@@H](O)[C@H](OS(=O)(=O)O)[C@H]2O)[C@@H](O)[C@H](O[C@H]2c3cc(C)c(C(=O)N[C@H](CO)C(=O)O)c(O)c3-c3c(cc4c(c3O)C(=O)c3cc(OC)cc(O)c3C4=O)[C@@H]2O)O[C@@H]1C [Pradimicin FS, pradimicin FS] | >100 | >100 | 18 | 82 (≈ 84.8 µM) | activity against various fungal organisms | >100 | 210 | 
NC(=O)c1ncn([C@@H]2O[C@H](CO)[C@@H](O)[C@H]2O)n1 [Ribavirin, reference compound] |  |  |  | 9.5 (≈ 38.9 µM) |  |  |  | 
